Source: patent US20230031406A1, “COMPOUNDS AND COMPOSITIONS FOR TREATING CONDITIONS ASSOCIATED WITH NLRP ACTIVITY” (Novartis AG, priority 2018, published 2023)
Like-named read-outs stand apart in the source and are kept apart here. Blank lines part the entries; values can stand above or below the molecule they belong to.

System: PMA-differentiated THP-1 cells
Assay: IL-1β production in PMA-differentiated THP-1 cells stimulated with gramicidin (hTHP-1 assay containing 2% fetal bovine serum; Procedures 1 and 2)
Format: cell-based, human
Conditions: 2% fetal bovine serum
Outline: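 PMA 20 ng/ml 16-18 h → trypsinise → 50,000 cells/well, RPMI/2% FBS; cpd 1 h (11-pt, 100–0.0017 μM; DMSO 0.37%); gramicidin 5 μM, 2 h; spin; supernatant IL-1β via HTRF.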

[1] = Table B2, class symbols, read-out: hTHP-1 IC50
[2] = Homo sapiens, THP-1, Table B2, class symbols, read-out: hTHP-1 IC50
[3] = Homo sapiens, THP-1, Table B3, hTHP-1 assay, class symbols, read-out: IC50
[4] = Table B1, class symbols, read-out: Average IC50 of compounds in hTHP-1 assay: hTHP-1 IC50
[5] = Homo sapiens, THP-1, Table B1, numeric bounds, read-out: Average IC50 of compounds in hTHP-1 assay: hTHP-1 IC50
[6] = Homo sapiens, THP-1, Table B1, class symbols, read-out: Average IC50 of compounds in hTHP-1 assay: hTHP-1 IC50
[7] = Table B4, class symbols, read-out: hTHP-1 IC50

IC50 [1]: 200 to 1000 nM
Compound: Cc1c(C2CC2)nc2c(c1NC(=O)N=S(N)(=O)c1cc(C(C)(C)O)cs1)CCC2C (single isomer, unassigned) [Compound 656a, (R, R) or (R, S) or (S, R) or (S, S)-N′-((2-Cyclopropyl-3,7-dimethyl-6,7-dihydro-5H-cyclopenta[b]pyridin-4-yl)carbamoyl)-4-(2-hydroxypropan-2-yl)thiophene-2-sulfonimidamide]

IC50 [2]: 1000 to 5000 nM
Compound: Cc1c(C2CC2)nc(C2CC2)c(C)c1NC(=O)N=S(N)(=O)c1cc(C(C)(C)O)cs1 (stereo not shown) [Compound 612, N′-((2,6-dicyclopropyl-3,5-dimethylpyridin-4-yl)carbamoyl)-4-(2-hydroxypropan-2-yl)thiophene-2-sulfonimidamide]

IC50 [3]: 5000 to 30000 nM
Compound: CC1(C)CCc2c1nc1c(c2NC(=O)N=[S@](N)(=O)c2cc([C@@](C)(O)CO)cs2)CCC1 [Example 654, (S)-4-((R)-1,2-dihydroxypropan-2-yl)-N′-((3,3-dimethyl-1,2,3,5,6,7-hexahydrodicyclopenta[b,e]pyridin-8-yl)carbamoyl) thiophene-2-sulfonimidamide]

IC50 [4]: 5000 to 30000 nM
Compound: CC(C)(O)c1ncc(S(N)(=O)=NC(=O)Nc2c3c(nc4c2CCC4(C)C)CCC3)s1 (single isomer, unassigned) [Compound 153a, (S) or (R)-N′-((3,3-dimethyl-1,2,3,5,6,7-hexahydro-dicyclopenta[b,e]pyridin-8-yl)carbamoyl)-2-(2-hydroxypropan-2-yl)thiazole-5-sulfonimidamide]

IC50 [3]: 200 to 1000 nM
Compound: CC1(C)CCc2c1nc1c(c2NC(=O)N=S(N)(=O)c2cc([C@@](C)(O)CO)cs2)CCC1 (stereo partly drawn) [Example 624, 4-((R)-1,2-dihydroxypropan-2-yl)-N′-((3,3-dimethyl-1,2,3,5,6,7-hexahydrodicyclopenta[b,e]pyridin-8-yl)carbamoyl)thiophene-2-sulfonimidamide]

IC50 [2]: 40 to 200 nM
Compound: CCn1ccc(S(N)(=O)=NC(=O)Nc2c3c(nc4c2CCC4(C)C)CCC3)n1 (stereo not shown) [Compound 603, N′-((3,3-dimethyl-1,2,3,5,6,7-hexahydrodicyclopenta[b,e]pyridin-8-yl)carbamoyl)-1-ethyl-1H-pyrazole-3-sulfonimidamide]

IC50 [5]: > 30000 nM
Compound: CCc1cc(NC(=O)N=S(N)(=O)c2cnc(C(C)(C)O)s2)c2c(n1)CCC2 (stereo not shown) [Compound 137, N′-((2-ethyl-6,7-dihydro-5H-cyclopenta[b]pyridin-4-yl)carbamoyl)-2-(2-hydroxypropan-2-yl)thiazole-5-sulfonimidamide]

IC50 [2]: 1000 to 5000 nM
Compound: CC(C)(O)c1ccc(S(N)(=O)=NC(=O)Nc2c3c(nc4c2CCC4(C)C)CCC3)cn1 (single isomer, unassigned) [Compound 673a, (R) or (S)-N′-((3,3-dimethyl-1,2,3,5,6,7-hexahydrodicyclopenta [b,e]pyridin-8-yl)carbamoyl)-6-(2-hydroxypropan-2-yl)pyridine-3-sulfonimidamide]

IC50 [6]: 5000 to 30000 nM
Compound: CC(C)c1cncc(C(C)C)c1NC(=O)N=S(N)(=O)c1cnc(C(C)(C)O)s1 (single isomer, unassigned) [Compound 160b, (S) or (R)-N′-((3,5-diisopropylpyridin-4-yl)carbamoyl)-2-(2-hydroxypropan-2-yl)thiazole-5-sulfonimidamide]

IC50 [6]: 1000 to 5000 nM
Compound: CN(C)Cc1ccc(S(N)(=O)=NC(=O)Nc2c3c(nc4c2CCC4(C)C)CCC3)cc1 (single isomer, unassigned) [Compound 125b, (R) or (S)-N′-((3,3-dimethyl-1,2,3,5,6,7-hexahydro-dicyclopenta[b,e]pyridin-8-yl)carbamoyl)-4-((dimethylamino)meth-yl)benzene-sulfonimidamide]

IC50 [1]: 5000 to 30000 nM
Compound: CCc1c(C2CC2)nc2c(c1NC(=O)N=S(N)(=O)c1cnc(C(C)(C)O)s1)CCC2 (single isomer, unassigned) [Compound 675b, (S) or (R)-N′-((2-cyclopropyl-3-ethyl-6,7-dihydro-5H-cyclopenta[b]pyridin-4-yl)carbamoyl)-2-(2-hydroxypropan-2-yl)thiazole-5-sulfonimidamide]

IC50 [2]: 200 to 1000 nM
Compound: C[C@@H]1CCc2c1nc1c(c2NC(=O)N=S(N)(=O)c2ccn(C)n2)CCC1 (single isomer, unassigned) [Compound 639b, (R) or (S)-1-Methyl-N′-(((R)-3-methyl-1,2,3,5,6,7-hexahydrodicyclopenta [b,e]pyridin-8-yl)carbamoyl)-1H-pyrazole-3-sulfonimidamide]

IC50 [2]: 5000 to 30000 nM
Compound: Cc1c(C2CC2)nc2c(c1NC(=O)N=S(N)(=O)c1cc(C(C)(C)O)n(-c3ccccc3)n1)CCC2 (stereo not shown) [Compound 651, N′-((2-cyclopropyl-3-methyl-6,7-dihydro-5H-cyclopenta[b]pyridin-4-yl)carbamoyl)-5-(2-hydroxypropan-2-yl)-1-phenyl-1H-pyrazole-3-sulfonimidamide]

IC50 [3]: 40 to 200 nM
Compound: C[C@@H]1CCc2c1nc1c(c2NC(=O)N=[S@@](N)(=O)c2cc([C@@H](C)O)cs2)CCC1 (single isomer, unassigned) [Example 663, (R)-4-((R) or (S)-1-hydroxyethyl)-N′-(((R)-3-methyl-1,2,3,5,6,7-hexahydrodicyclopenta[b,e]pyridin-8-yl)carbamoyl) thiophene-2-sulfonimidamide]

IC50 (Homo sapiens, THP-1, Table B2, numeric bounds, read-out: hTHP-1 IC50): > 30000 nM
Compound: CC1CCc2c1nc1c(c2NC(=O)N=S(N)(=O)c2cc(C(C)(C)O)n(-c3ccccc3)n2)CCC1 (single isomer, unassigned) [Compound 664a, (S) or (R)-5-(2-Hydroxypropan-2-yl)-N′-((3-methyl-1,2,3,5,6,7-hexahydrodicyclopenta [b,e]pyridin-8-yl)carbamoyl)-1-phenyl)-1-pyrazole-3-sulfonimidamide]

IC50 [4]: 1000 to 5000 nM
Compound: CC(C)(O)c1cc(F)c(S(N)(=O)=NC(=O)Nc2c3c(nc4c2CCC4)CCC3)s1 (single isomer, unassigned) [Compound 105b, (S) or (R)-3-fluoro-N′-((1,2,3,5,6,7-hexahydro-dicyclopenta[b,e]pyridin-8-yl)carbamoyl)-5-(2-hydroxypropan-2-yl)thio-phene-2-sulfonimidamide]

IC50 [2]: 5000 to 30000 nM
Compound: Cc1c(C(C)(C)C)nc2c(c1NC(=O)N=S(N)(=O)c1cc(C(C)(C)O)cs1)CCC2 (single isomer, unassigned) [Compound 657b, (R) or (S)-N′-((2-(tert-butyl)-3-methyl-6,7-dihydro-5H-cyclopenta[b]pyridin-4-yl)carbamoyl)-4-(2-hydroxypropan-2-yl)thiophene-2-sulfonimidamide]

IC50 (Homo sapiens, THP-1, Table B4, class symbols, read-out: hTHP-1 IC50): 40 to 200 nM
Compound: CCn1cc(F)c(S(N)(=O)=NC(=O)Nc2c3c(nc(C)c2-c2ccccc2)CCC3)n1 (stereo not shown) [Example 741, 1-Ethyl-4-fluoro-N′-((2-methyl-3-phenyl-6,7-dihydro-5H-cyclopenta[b]pyridin-4-yl)carbamoyl)-1H-pyrazole-3-sulfonimidamide]

IC50 [2]: 5000 to 30000 nM
Compound: Cc1nc2c(c(NC(=O)N=S(N)(=O)c3cc(C(C)(C)O)cs3)c1C(C)C)CCC2 (stereo not shown) [Compound 622, 4-(2-Hydroxypropan-2-yl)-N′-((3-isopropyl-2-methyl-6,7-dihydro-5H-cyclopenta[b]pyridin-4-yl)carbamoyl)thiophene-2-sulfonimidamide]

IC50 [5]: > 30000 nM
Compound: Cc1nc2c(c(NC(=O)N=S(N)(=O)c3cnc(C(C)(C)O)s3)c1C(C)C)CCC2 (single isomer, unassigned) [Compound 116a, (S) or (R)-2-(2-hydroxypropan-2-yl)-N′-((3-isopropyl-2-methyl-6,7-dihydro-5H-cyclopenta[b]pyridin-4-yl)carbamoyl)thiazole-5-sulfonimidamide]

IC50 (Table B3, hTHP-1 assay, class symbols, read-out: IC50): 1000 to 5000 nM
Compound: NS(=O)(=NC(=O)Nc1c2c(nc3c1CCC31CC1)CCC2)c1nn(C(F)F)cc1F (single isomer, unassigned) [Example 682, (S) or (R)-1-(difluoromethyl)-4-fluoro-N′-((1′,5′,6′,7′-tetrahydro-2′H-spiro[cyclopropane-1,3′-dicyclopenta[b,e]pyridin]-8′-yl)carbamoyl)-1H-pyrazole-3-sulfonimidamide]

IC50 [7]: 8 to 40 nM
Compound: CCn1cc(F)c(S(N)(=O)=NC(=O)Nc2c3c(nc(C(F)(F)F)c2-c2cccc(F)c2)CCC3)n1 (single isomer, unassigned) [Example 781, (R) or (S)-1-ethyl-4-fluoro-N′-((3-(3-fluorophenyl)-2-(trifluoromethyl)-6,7-dihydro-5H-cyclopenta[b]pyridin-4-yl)carbamoyl)-1H-pyrazole-3-sulfonimidamide]

IC50 [2]: 1000 to 5000 nM
Compound: Cc1nc2c(c(NC(=O)N=S(N)(=O)c3ncc(C(C)(C)O)s3)c1C1CC1)CCC2 (stereo not shown) [Compound 618, N′-((3-cyclopropyl-2-methyl-6,7-dihydro-5H-cyclopenta[b]pyridin-4-yl)carbamoyl)-5-(2-hydroxypropan-2-yl)thiazole-2-sulfonimidamide]

IC50 [6]: 40 to 200 nM
Compound: CC(C)(O)c1ncc(S(N)(=O)=NC(=O)Nc2c3c(nc4c2CCC4(C)C)CCC3)s1 (stereo not shown) [Compound 153, N′-((3,3-dimethyl-1,2,3,5,6,7-hexahydrodicyclopenta[b,e]pyridin-8-yl)carbamoyl)-2-(2-hydroxypropan-2-yl)thiazole-5-sulfonimidamide]

IC50 [7]: 200 to 1000 nM
Compound: CCn1cc(F)c(S(N)(=O)=NC(=O)Nc2c3c(nc(C(F)(F)F)c2-c2cccc(F)c2)CCC3)n1 (single isomer, unassigned) [Example 782, (S) or (R)-1-ethyl-4-fluoro-N′-((3-(3-fluorophenyl)-2-(trifluoromethyl)-6,7-dihydro-5H-cyclopenta[b]pyridin-4-yl)carbamoyl)-1H-pyrazole-3-sulfonimidamide]
